From patent US9765085B2, “SHIP1 modulators and methods related thereto” (Aquinox Pharmaceuticals (Canada) Inc., priority 2013, dated 2017)

Biological target: T1, His-hSHIP1 enzyme (Homo sapiens, UniProt Q92835)
T1 construct: His
T1 sequence (Q92835 1-1189): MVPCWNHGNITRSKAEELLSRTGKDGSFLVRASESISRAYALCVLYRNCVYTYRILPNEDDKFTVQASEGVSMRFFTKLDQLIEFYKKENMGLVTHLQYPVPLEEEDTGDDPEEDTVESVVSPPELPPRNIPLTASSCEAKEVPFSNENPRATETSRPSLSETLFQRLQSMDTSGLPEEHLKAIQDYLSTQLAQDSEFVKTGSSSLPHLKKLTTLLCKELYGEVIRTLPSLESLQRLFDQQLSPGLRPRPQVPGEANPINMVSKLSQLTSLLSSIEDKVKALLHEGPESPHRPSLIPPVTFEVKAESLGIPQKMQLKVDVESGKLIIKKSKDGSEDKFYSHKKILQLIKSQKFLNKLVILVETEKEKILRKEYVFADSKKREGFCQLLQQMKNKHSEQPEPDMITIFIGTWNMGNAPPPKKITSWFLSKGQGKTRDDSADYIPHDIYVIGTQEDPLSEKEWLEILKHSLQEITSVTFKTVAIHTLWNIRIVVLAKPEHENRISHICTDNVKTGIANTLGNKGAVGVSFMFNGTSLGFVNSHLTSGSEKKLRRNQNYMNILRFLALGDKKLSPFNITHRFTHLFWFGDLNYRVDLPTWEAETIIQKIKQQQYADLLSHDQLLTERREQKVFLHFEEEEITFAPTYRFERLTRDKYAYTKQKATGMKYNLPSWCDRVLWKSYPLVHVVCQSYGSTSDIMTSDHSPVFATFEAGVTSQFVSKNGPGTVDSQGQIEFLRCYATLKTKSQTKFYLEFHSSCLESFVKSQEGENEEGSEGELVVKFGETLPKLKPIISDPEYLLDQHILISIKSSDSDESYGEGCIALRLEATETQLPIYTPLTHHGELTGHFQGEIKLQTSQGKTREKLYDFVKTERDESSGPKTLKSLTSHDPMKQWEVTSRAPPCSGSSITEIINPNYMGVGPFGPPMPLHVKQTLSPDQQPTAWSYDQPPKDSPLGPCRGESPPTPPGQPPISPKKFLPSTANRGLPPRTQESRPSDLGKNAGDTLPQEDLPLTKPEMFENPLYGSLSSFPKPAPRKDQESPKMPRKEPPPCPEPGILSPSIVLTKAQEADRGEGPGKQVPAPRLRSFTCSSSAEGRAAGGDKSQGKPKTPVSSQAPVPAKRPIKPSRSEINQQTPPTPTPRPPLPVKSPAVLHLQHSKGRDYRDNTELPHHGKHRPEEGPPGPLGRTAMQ
Assay: His-hSHIP1 activity (phosphatase assay, IP4 substrate, Biomol Green)
Format: biochemical
Set-up: key: +++: higher than reference or reference - 15%; ++: reference - 16% to reference - 30%; +: reference - 31% or lower; −: inhibitor
Conditions: ratio of initial velocities (IP4 25/IP4 250 μM final) compared with a reference SHIP1 activator; 37° C.
Experimental: Test compounds are dissolved in 95% ethanol to form stock solutions. Before screening, the stock solutions are diluted with Phosphatase Assay Buffer (20 mM Tris-HCL, 10 mM MgCl2 pH 7.5, 0.02% Tween 20) to form working assay solutions that contain 10% ethanol. The assay is carried out on 96-well microtiter plates using a modified procedure of that reported by Ong et al., Blood 110, 1942-1949, 2007 and Yang et al., Org Lett 7, 1073-1076, 2005, both of which references are incorporated herein by reference in their entirety.
A master mix is prepared that contains 50 μL of His-hSHIP1 enzyme (0.4-1.6 ng/μL final), 25 μL of the substrate, IP4 (25 or 250 μM final), and 50 μL of test compound in 3.3% ethanol ([…]). Control blanks are also prepared by replacing His-hSHIP1 enzyme, IP4, or test compounds with Phosphate Assay Buffer. […] Each reaction component is preincubated at 37° C. for 30 min before adding to a 96-well microtiter plate. The master mix is then incubated at 37° C. At time 0, 20, 25 and 30 min, 25 μL of the master mix is removed and transferred to a new 96-well microtiter plate, to which 100 μL of Biomol Green Reagent is added to stop the reaction. After incubating the mixture for 20 min at room temperature for color development, the absorbance is read with SpectraMax Plus 96-well plate reader at a wavelength of 650 nm. Phosphate released is plotted against time to calculate the initial velocities (i.e., slope of the graph) at each IP4 concentration. The initial velocities are baseline corrected and the ratio of initial velocities (IP425/IP4250) is calculated and used to rate the test compounds.
The compound numbers in Table 2 correspond to the compound numbers in Table 1 above. Scoring of the compound is expressed as follows: […]

Compound | Scoring (Initial Velocity Ratio)
C#C[C@]1(O)CC[C@H]2[C@H](CO)[C@@H]([C@@]3(C)CC[C@H](O)C[C@@H]3CO)CC[C@@]21C [compound 28, (1R,3aS,4R,5S,7aS)-1-ethynyl-5-((1R,2S,4S)-4-hydroxy-2-(hydroxymethyl)-1-methylcyclohexyl)-4-(hydroxymethyl)-7a-methyloctahydro-1H-inden-1-ol] | ++
C[C@@H]1CC[C@@]2(OC1)O[C@H]1C[C@H]3[C@H](CO)[C@@H]([C@@]4(C)CC[C@H](O)C[C@@H]4CO)CC[C@]3(C)[C@H]1[C@@H]2C [compound 29, (1S,3S,4R)-3-(hydroxymethyl)-4-((2R,3S,3aR,3bS,5′R,6S,7R,7aS,8aS)-7-(hydroxymethyl)-3,3b,5′-trimethyltetradecahydrospiro[indeno[2,1-b]furan-2,2′-pyran]-6-yl)-4-methylcyclohexanol] | ++
C[C@]1([C@H]2CC[C@]3(C)C(c4ccco4)=CC[C@H]3[C@@H]2CO)CC[C@H](O)C[C@@H]1CO [compound 30, (1S,3S,4R)-4-((3aS,6S,7R,7aS)-3-(furan-2-yl)-7-(hydroxymethyl)-3a-methyl-3a,4,5,6,7,7a-hexahydro-1H-inden-6-yl)-3-(hydroxymethyl)-4-methylcyclohexanol] | +
C=C1CC[C@H]2[C@H](CO)[C@@H]([C@@]3(C)CC[C@H](NC(C)=O)C[C@@H]3CO)CC[C@]12C [compound 32, N-((1S,3S,4R)-3-(hydroxymethyl)-4-((3aS,4R,5S,7aS)-4-(hydroxymethyl)-7a-methyl-1-methyleneoctahydro-1H-inden-5-yl)-4-methylcyclohexyl)acetamide] | ++
C[C@]1([C@H]2CC[C@]3(C)c4[nH]ncc4C[C@H]3[C@@H]2CO)CC[C@H](O)C[C@@H]1CO [compound 33, (1S,3S,4R)-3-(hydroxymethyl)-4-((4aS,5R,6S,8aS)-5-(hydroxymethyl)-8a-methyl-1,4,4a,5,6,7,8,8a-octahydroindeno[1,2-c]pyrazol-6-yl)-4-methylcyclohexanol] | +
C[C@]1([C@H]2CC[C@@]3(C)[C@@H](CC[C@@]3(O)c3cccs3)[C@@H]2CO)CC[C@H](O)C[C@@H]1CO [compound 34, (1S,3aS,4R,5S,7aS)-5-((1R,2S,4S)-4-hydroxy-2-(hydroxymethyl)-1-methylcyclohexyl)-4-(hydroxymethyl)-7a-methyl-1-(thiophen-2-yl)octahydro-1H-inden-1-ol] | +
C[C@]1([C@H]2CC[C@@]3(C)[C@@H](CC[C@@]3(O)c3ccccn3)[C@@H]2CO)CC[C@H](O)C[C@@H]1CO [compound 36, (1S,3aS,4R,5S,7aS)-5-((1R,2S,4S)-4-hydroxy-2-(hydroxymethyl)-1-methylcyclohexyl)-4-(hydroxymethyl)-7a-methyl-1-(pyridin-2-yl)octahydro-1H-inden-1-ol] | ++
C[C@]1([C@H]2CCC3=C(C[C@@H](O)[C@@]3(C)c3ccccc3)[C@@H]2CO)CC[C@H](O)C[C@@H]1CO [compound 37, (1S,2R,4R,5S)-5-((1R,2S,4S)-4-hydroxy-2-(hydroxymethyl)-1-methylcyclohexyl)-4-(hydroxymethyl)-1-methyl-1-phenyl-2,3,4,5,6,7-hexahydro-1H-inden-2-ol] | +
(1S,3S,4R)-4-((2R,3S,3aR,3bS,5′R,6S,7R,7aS,8aS)-7-(aminomethyl)-3,3b,5′-trimethyltetradecahydrospiro[indeno[2,1-b]furan-2,2′-pyran]-6-yl)-3-(hydroxymethyl)-4-methylcyclohexanol acetate [compound 14] | ++
